From US8034778B2, “Neuroprotective compounds and uses thereof” (Ever Neuro Pharma GmbH, priority 2006, dated 2011)
Where two headings read alike, the source gives them in different places. Residues, ends and D or L forms follow the SMILES beside them. No end group written: not given here.

Tested on: telencephalon neurons from 9-day-old chicken embryos (cortical neurons)
Format: cell-based
Description: 1.1.2. Assay Conditions: • Assay: 2% low serum cell culture assay • Cell source: telencephalon neurons from 9-day-old chicken embryos (Lohman Brown hybrid) • Nutrition medium: EMEM with 1 g glucose/l, 2% FCS, 0.01% gentamycin sulfate and 2 mM L-glutamine • Group size: 4 independent experiments were performed (n =8 for DLHW (SEQ ID NO:2), NIVTPR (SEQ ID NO:3), HGFLPR (SEQ ID NO:4), NMVPFPR (SEQ ID NO:5) and the test matrix) • Evaluation of the effects: • MTT viability assay; absorbance (OD) measured with a plate reader • Duration of one single experiment: • 8 days
2.2.1.1. Test Item (DLHW) (SEQ ID NO:2): • Vehicle for dilution: test matrix (6.18 mg/ml NaCl and 0.35 mg/ml KCl) • Application mode: once at the 1st day • Application period: for the whole experiment, i.e. 8 days, from 1st day onwards • Concentrations: 5.6, 11.25, 22.5, 45, 90, 180, 360 and 720 μg/ml • Administration volume: 0.625, 1.25, 2.5, 5, 10, 20, 40, 80 μl/ml medium
2.2.1.2. Test Item (NIVTPR) (SEQ ID NO:3): • Vehicle for dilution: test matrix (6.18 mg/ml NaCl and 0.35 mg/ml KCl) • Application mode: once at the 1st day • Application period: for the whole experiment, i.e. 8 days, from 1st day onwards • Concentrations: 5.6, 11.25, 22.5, 45, 90, 180, 360 and 720 μg/ml • Administration volume: 0.625, 1.25, 2.5, 5, 10, 20, 40, 80 μl/ml medium
2.2.1.3. Test Item (HGFLPR) (SEQ ID NO:4): • Vehicle for dilution: test matrix (6.18 mg/ml NaCl and 0.35 mg/ml KCl) • Application mode: once at the 1st day • Application period: for the whole experiment, i.e. 8 days, from 1st day onwards • Concentrations: 5.6, 11.25, 22.5, 45, 90, 180, 360 and 720 μg/ml • Administration volume: 0.625, 1.25, 2.5, 5, 10, 20, 40, 80 μl/ml medium
2.2.1.4. Test Item (NMPFPR) (SEQ ID NO:5): • Vehicle for dilution: test matrix (6.18 mg/ml NaCl and 0.35 mg/ml KCl) • Application mode: once at the 1st day • Application period: for the whole experiment, i.e. 8 days, from 1st day onwards • Concentrations: 5.6, 11.25, 22.5, 45, 90, 180, 360 and 720 μg/ml • Administration volume: 0.625, 1.25, 2.5, 5, 10, 20, 40, 80 μl/ml medium
2.3. Assay Conditions • Cell culture assays: 2% low serum assay • Cell source: telencephalon neurons from 9-day-old chicken embryos (Lohman Brown hybrid) • Nutrition medium: EMEM with 1 g glucose/l, 2% FCS, 0.01% gentamycin sulfate and 2mM L-glutamine • Group size: 4 independent experiments were performed (n =8for DLHW (SEQ ID NO:2) ant and the test matrix; n =224 for controls) • Evaluation of the effects: MTT viability assay; absorbance (OD) measured with a plate reader • Duration of one single experiment: 8 days
The analytical procedure used in the present example is a 2% low serum assay using isolated avian cortical neurons. With this in vitro cell culture assay the neuroprotective and/or neurotrophic potential of compounds can be evaluated by determining the viability of living neurons after a distinct time period in culture. The method for measuring the amount of viable neurons is the MTT-assay.
To the isolated nerve cells the peptides or test matrix were added once, i.e. at the first day. The 8 concentrations comprising dose range was between 5.6, 11.25, 22.5, 45, 90, 180, 360 and 720 μg/ml medium; the volumes applied were 0.625, 1.25, 2.5, 5, 10, 20, 40, 80 μl/ml medium.
Neuronal viability of cultures was determined with the MTT-assay using a plate-reader (570 nm). The MTT-assay is a sensitive assay measuring the mitochondrial dehydrogenase activity in viable cells only. It is performed according to the method described by Mosmann, J. Immunol. Meth, 1983, 55-63. This assay is based on the reduction of yellow MTT (3-(4,5-dimethylthiazol-2-yl)-2,5,diphenyl tetrazolium bromide), to dark blue formazan crystals by mitochondrial dehydrogenases (succinate dehydrogenase). Since this reaction is catalysed in living cells only the assay can be used for the quantification of cell viability. […]

[1] = 5.6 μg/ml, added at 1DIV, 8 days
[2] = 11.25 μg/ml, added at 1DIV, 8 days
[3] = 22.5 μg/ml, added at 1DIV, 8 days
[4] = 45 μg/ml, added at 1DIV, 8 days
[5] = 90 μg/ml, added at 1DIV, 8 days
[6] = 180 μg/ml, added at 1DIV, 8 days
[7] = 360 μg/ml, added at 1DIV, 8 days
[8] = 720 μg/ml, added at 1DIV, 8 days
[9] = Lohman Brown hybrid, chicken, 8 days, 5.6 μg/ml
[10] = Lohman Brown hybrid, chicken, 8 days, 11.25 μg/ml
[11] = Lohman Brown hybrid, chicken, 8 days, 22.5 μg/ml
[12] = Lohman Brown hybrid, chicken, 8 days, 45 μg/ml
[13] = Lohman Brown hybrid, chicken, 8 days, 90 μg/ml
[14] = Lohman Brown hybrid, chicken, 8 days, 180 μg/ml
[15] = Lohman Brown hybrid, chicken, 8 days, 360 μg/ml
[16] = Lohman Brown hybrid, chicken, 8 days, 720 μg/ml

Row | Molecule | viability of cortical neurons, MTT, mean optical density (OD) [1] [OD] | viability of cortical neurons, MTT, mean optical density (OD) [2] [OD] | viability of cortical neurons, MTT, mean optical density (OD) [3] [OD] | viability of cortical neurons, MTT, mean optical density (OD) [4] [OD] | viability of cortical neurons, MTT, mean optical density (OD) [5] [OD] | viability of cortical neurons, MTT, mean optical density (OD) [6] [OD] | viability of cortical neurons, MTT, mean optical density (OD) [7] [OD] | viability of cortical neurons, MTT, mean optical density (OD) [8] [OD] | viability of cortical neurons, mean in % (control is 100%) [9] [%] | viability of cortical neurons, mean in % (control is 100%) [10] [%] | viability of cortical neurons, mean in % (control is 100%) [11] [%] | viability of cortical neurons, mean in % (control is 100%) [12] [%] | viability of cortical neurons, mean in % (control is 100%) [13] [%] | viability of cortical neurons, mean in % (control is 100%) [14] [%] | viability of cortical neurons, mean in % (control is 100%) [15] [%] | viability of cortical neurons, mean in % (control is 100%) [16] [%] | other results
1 | CC(C)C[C@H](NC(=O)[C@@H](N)CC(=O)O)C(=O)N[C@@H](Cc1c[nH]cn1)C(=O)N[C@@H](Cc1c[nH]c2ccccc12)C(=O)O [DLHW] (H-DLHW-OH; N-terminus and C-terminus assumed) | 0.062 | 0.062 | 0.085 | 0.136 | 0.217 | 0.272 | 0.254 | 0.257 | 97.85 | 97.68 | 134.51 | 213.12 | 341.82 | 429.54 | 401.23 | 406.75 | maximum effect (viability, control 100%) [15]: 430%; effect beyond control (added at 1DIV, MTT method): 430%; effective dose range (added at 1DIV, MTT method): 45 to 702 µg/mL; maximum effect in % (added at 1DIV, MTT method): 430%; most effectice concentration (added at 1DIV, MTT method): 180 µg/mL; effect above the control level (in higher concentrations (than that of the maximum effect)): ~300%
2 | HGFLPR [HGFLPR] | 0.068 | 0.069 | 0.069 | 0.067 | 0.070 | 0.067 | 0.064 | 0.058 | 100.07 | 101.16 | 101.16 | 98.95 | 102.25 | 99.14 | 94.53 | 85.71 | 
3 | NIVTPR [NIVTPR] | 0.068 | 0.069 | 0.068 | 0.068 | 0.066 | 0.064 | 0.060 | 0.058 | 98.92 | 100.32 | 98.70 | 98.75 | 95.12 | 92.28 | 86.60 | 83.13 | 
4 | NMVPFPR [NMVPFPR] | 0.061 | 0.060 | 0.057 | 0.057 | 0.056 | 0.055 | 0.055 | 0.057 | 98.06 | 95.77 | 90.76 | 90.55 | 89.54 | 87.76 | 87.79 | 91.24 | 
